This test has as its system CD2F 1 male mice. Briefly: 30-day survival of mice after a lethal dose of cobalt-60 radiation. The class given is in vivo. As for the experimental part:
Control groups were administered saline and polyethylene glycol 400 (the vehicle for the genistein) prior to irradiation. Genistein (Sigma Chemical Co., St. Louis, Mo.) was administered 400 mg/kg either as a single dose or multiple dosages of 100 mg/kg each at various times ranging from 1 hour to 4 days before radiation, after irradiation, or both before and after radiation.
In subsequent studies, using the procedures and mice of Example 1, a single subcutaneous dose of 100 or 400 mg/kg genistein was administered 24 hr before 9.5 Gy radiation.

Among the data in patent US20020001565A1, “Radioprotective agents” (priority 2000, published 2002) are 30-day survival, radioprotection and 30-day survival rate values, retold here.

Turning to `O=c1c(-c2ccc(O)cc2)coc2cc(O)cc(O)c12` [genistein, 5,7-dihydroxy-3-(4-hydroxyphenyl)-4H-1 benzopyran-4-one], the 30-day survival by setting is: (100 mg/kg orally daily for 4 days before and 4 days after irradiation, 9.5 Gy) 50%; (genistein before and after irradiation, oral, 9.5 Gy cobalt-60, dose not given) 69%; (genistein only after irradiation, oral, 9.5 Gy cobalt-60, dose not given) 0%; (genistein only before radiation, oral, 9.5 Gy cobalt-60 at 0.6 Gy/min, dose not given) “Forty-four”; (multiple oral administration 100 mg/kg, 4 days before irradiation, 9.5 Gy) 0%; (multiple oral administration 100 mg/kg, after irradiation, 9.5 Gy) 0%. The radioprotection result is “did not confer any measurable radioprotection” (single dose 400 mg/kg orally 1 hr before 9.5 Gy radiation) and “did not confer any measurable radioprotection” (single dose 400 mg/kg orally 24 hr before 9.5 Gy radiation). For the same compound, the 30-day survival rate by setting is: (single subcutaneous dose 100 mg/kg 24 hr before 9.5 Gy radiation) 69%; (single subcutaneous dose 400 mg/kg 24 hr before 9.5 Gy radiation) 81%.
